The target in experiment [1] is T1, recombinant human Dopamine Subtype D2s receptors (Homo sapiens, UniProt P14416).
T1 construct: purchased Perkin Elmer
Kind of experiment: Dopamine D2 selectivity assay, inhibition of [3H]-spiperone binding to membranes. The settings on record: [3H]-spiperone 0.16 nM; read-out: D2 bind pIC50 (converted). The method, then:
Membranes containing recombinant human Dopamine Subtype D2s receptors were obtained from Perkin Elmer. These were diluted in Assay Buffer (50 mM HEPES, 1 mM EDTA, 120 mM NaCl, 0.1% gelatin, pH 7.4) to provide a final concentration of membranes that gave a clear window between maximum and minimum specific binding.
Assays were performed in U-bottomed 96-well polypropylene plates. 30 μL [^3H]-spiperone (0.16 nM final concentration) and 30 μL of test compound (10× final concentration) were added to each test well. For each assay plate 8 replicates were obtained for [^3H]-spiperone binding in the presence of 30 μL vehicle (10% (v/v) DMSO in Assay Buffer; defining maximum binding) or 30 μL Haloperidol (10 μM final concentration; defining non-specific binding (NSB)). Membranes were then added to achieve a final volume of 300 μL. The plates were incubated for 2 hours at room temperature and then filtered onto PEI coated GF/B filter plates, pre-soaked for 1 hour in Assay Buffer, using a 96-well plate Tomtec cell harvester. Five washes with 250 μL wash buffer (50 mM HEPES, 1 mM EDTA, 120 mM NaCl, pH 7.4) were performed at 4° C. to remove unbound radioactivity. The plates were dried then sealed from underneath using Packard plate sealers and MicroScint-O (50 μL) was added to each well. The plates were sealed (TopSeal A) and filter-bound radioactivity was measured with a scintillation counter (TopCount, Packard BioScience) using a 3-minute counting protocol.
Total specific binding (B0) was determined by subtracting the mean NSB from the mean maximum binding. NSB values were also subtracted from values from all other wells. […] Data was fitted to a four parameter logistic equation to determine the compound potency, which was expressed as pIC50 (negative log molar concentration inducing 50% inhibition of [^3H]-spiperone binding).

Experiment [2] has as its target T2, recombinant human adrenergic beta 1 receptors (Homo sapiens, UniProt P08588).
T2 construct: purchased Euroscreen
As to the kind of experiment: Adrenergic β1 selectivity assay, inhibition of [125I]-Iodocyanopindolol binding to membranes. The note with it: [125I]-Iodocyanopindolol 0.036 nM; read-out: β1 bind p IC50 (converted). The method, then:
Membranes containing recombinant human adrenergic beta 1 receptors were obtained from Euroscreen. These were diluted in Assay Buffer (50 mM HEPES, 1 mM EDTA, 120 mM NaCl, 0.1% gelatin, pH 7.4) to provide a final concentration of membranes that gave a clear window between maximum and minimum specific binding.
Assays were performed in U-bottomed 96-well polypropylene plates. 10 μL [^125I]-Iodocyanopindolol (0.036 nM final concentration) and 10 μL of test compound (10× final concentration) were added to each test well. For each assay plate 8 replicates were obtained for [^125I]-Iodocyanopindolol binding in the presence of 10 μL vehicle (10% (v/v) DMSO in Assay Buffer; defining maximum binding) or 10 μL Propranolol (10 μM final concentration; defining non-specific binding (NSB)). Membranes were then added to achieve a final volume of 100 μL. […] Five washes with 250 μL wash buffer (50 mM HEPES, 1 mM EDTA, 120 mM NaCl, pH 7.4) were performed at 4° C. to remove unbound radioactivity. […] The plates were sealed (TopSeal A) and filter-bound radioactivity was measured with a scintillation counter (TopCount, Packard BioScience) using a 3-minute counting protocol.
Total specific binding (B0) was determined by subtracting the mean NSB from the mean maximum binding. […]

A further experiment addresses T3, Adrenergic β2 (Homo sapiens, UniProt P07550).
T3 construct: endogenous in cells; host or cells: H292 cells
As to the kind of experiment: Alternative adrenergic β2 mediated cAMP production in H292 cells (AlphaScreen cAMP detection). The format is cell-based. The note with it: for EC50: cAMP, test compounds incubated 60 minutes at room temperature, 300 μM rolipram, read-out: β2 pEC50 (converted); for β2 Int Act: fraction relative to the maximum activity determined for formoterol, 60 minutes incubation. As to the method: Alternative Adrenergic β2 Mediated cAMP Production Cell Preparation
H292 cells were grown in 225 cm2 flasks incubator at 37° C., 5% CO2 in RPMI medium containing, 10% (v/v) FBS (foetal bovine serum) and 2 mM L-glutamine.
Adherent H292 cells were removed from tissue culture flasks by treatment with Accutase™ cell detachment solution for 15 minutes. Flasks were incubated for 15 minutes in a humidified incubator at 37° C., 5% CO2. Detached cells were re-suspended in RPMI media (containing 10% (v/v) FBS and 2 mM L-glutamine) at 0.05×10^6 cells per mL. 5000 cells in 100 μL were added to each well of a tissue-culture-treated 96-well plate and the cells incubated overnight in a humidified incubator at 37° C., 5% CO2. The culture media was removed and cells were washed twice with 100 μL assay buffer and replaced with 50 μL assay buffer (HBSS solution containing 10 mM HEPES pH7.4 and 5 mM glucose). Cells were rested at room temperature for 20 minutes after which time 25 μL of rolipram (1.2 mM made up in assay buffer containing 2.4% (v/v) dimethylsulphoxide) was added. Cells were incubated with rolipram for 10 minutes after which time test compounds were added and the cells were incubated for 60 minutes at room temperature. The final rolipram concentration in the assay was 300 μM and final vehicle concentration was 1.6% (v/v) dimethylsulphoxide. The reaction was stopped by removing supernatants, washing once with 100 μL assay buffer and replacing with 50 μL lysis buffer. The cell monolayer was frozen at −80° C. for 30 minutes (or overnight).
AlphaScreen™ cAMP Detection
The concentration of cAMP (cyclic adenosine monophosphate) in the cell lysate was determined using AlphaScreen™ methodology. The frozen cell plate was thawed for 20 minutes on a plate shaker then 10 μL of the cell lysate was transferred to a 96-well white plate. 40 μL of mixed AlphaScreen™ detection beads pre-incubated with biotinylated cAMP, was added to each well and the plate incubated at room temperature for 10 hours in the dark. The AlphaScreen™ signal was measured using an EnVision spectrophotometer (Perkin-Elmer Inc.) with the recommended manufacturer's settings. cAMP concentrations were determined by reference to a calibration curve determined in the same experiment using standard cAMP concentrations. Concentration response curves for agonists were constructed and data was fitted to a four parameter logistic equation to determine both the pEC50 and Intrinsic Activity. Intrinsic Activity was expressed as a fraction relative to the maximum activity determined for formoterol in each experiment.

Where a name gives a salt, the structure may show the parent alone.

T3 sequence (P07550 whole entry): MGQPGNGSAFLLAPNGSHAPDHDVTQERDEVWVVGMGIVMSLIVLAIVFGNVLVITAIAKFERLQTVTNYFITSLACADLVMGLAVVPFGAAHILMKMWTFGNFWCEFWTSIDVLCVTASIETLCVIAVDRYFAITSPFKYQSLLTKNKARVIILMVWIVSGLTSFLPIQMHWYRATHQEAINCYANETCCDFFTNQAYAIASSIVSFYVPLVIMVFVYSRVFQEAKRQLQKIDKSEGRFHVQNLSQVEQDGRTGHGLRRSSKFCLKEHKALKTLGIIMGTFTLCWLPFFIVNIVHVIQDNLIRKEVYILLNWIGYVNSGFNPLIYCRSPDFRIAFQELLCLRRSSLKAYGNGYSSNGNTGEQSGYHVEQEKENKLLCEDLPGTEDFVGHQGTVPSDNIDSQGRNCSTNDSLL
T2 sequence (P08588 whole entry): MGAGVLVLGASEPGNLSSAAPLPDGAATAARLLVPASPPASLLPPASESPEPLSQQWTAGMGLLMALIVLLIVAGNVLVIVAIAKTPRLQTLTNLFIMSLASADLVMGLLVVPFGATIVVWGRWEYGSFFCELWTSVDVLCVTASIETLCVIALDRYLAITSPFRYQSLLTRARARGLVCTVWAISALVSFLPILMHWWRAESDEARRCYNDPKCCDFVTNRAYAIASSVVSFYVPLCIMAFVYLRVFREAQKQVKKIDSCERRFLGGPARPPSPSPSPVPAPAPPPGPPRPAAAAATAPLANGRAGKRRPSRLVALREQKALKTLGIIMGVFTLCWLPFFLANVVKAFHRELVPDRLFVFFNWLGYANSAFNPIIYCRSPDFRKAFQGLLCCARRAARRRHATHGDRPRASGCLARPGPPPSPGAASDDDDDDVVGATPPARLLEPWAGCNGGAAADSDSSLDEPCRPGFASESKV
T1 sequence (P14416 1-414 isoform P14416-2): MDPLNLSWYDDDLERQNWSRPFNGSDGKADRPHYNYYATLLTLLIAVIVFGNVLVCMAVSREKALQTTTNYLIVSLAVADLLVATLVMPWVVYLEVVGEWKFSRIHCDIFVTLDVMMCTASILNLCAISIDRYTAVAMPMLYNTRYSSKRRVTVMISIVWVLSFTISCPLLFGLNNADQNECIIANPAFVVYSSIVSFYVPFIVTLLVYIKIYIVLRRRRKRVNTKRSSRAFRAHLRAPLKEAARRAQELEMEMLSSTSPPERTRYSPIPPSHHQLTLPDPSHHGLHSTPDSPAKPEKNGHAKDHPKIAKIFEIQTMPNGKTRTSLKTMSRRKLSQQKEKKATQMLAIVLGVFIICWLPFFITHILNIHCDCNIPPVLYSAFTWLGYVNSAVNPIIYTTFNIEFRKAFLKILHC

`CCN(CC)CCN(CCNCCc1ccc(O)c2[nH]c(=O)sc12)C(=O)CCOCCc1ccc(Cl)cc1` [Example 26, 3-[2-(4-Chlorophenyl)ethoxy]-N-(2-diethylaminoethyl)-N-{2-[2-(4-hydroxy-2-oxo-2,3-dihydro-1,3-benzothiazol-7-yl)ethylamino]ethyl}propanamide dihydrobromide]: in experiment [1], the IC50 is 1260 nM. Besides, the IC50 in experiment [2] was 1000 nM. At Adrenergic β2, the EC50 is 15.8 nM and the “β2 Int Act” value is given as 0.6.

In the case of `CCN(CC)CCN(CCNCCc1ccc(O)c2[nH]c(=O)sc12)C(=O)CCOCCc1cccc(C)c1` [Example 28, N-[2-(Diethylamino)ethyl]-N-(2-{[2-(4-hydroxy-2-oxo-2,3-dihydro-1,3-benzothiazol-7-yl)ethyl]amino}ethyl)-3-[2-(3-methylphenyl)ethoxy]propanamide], the IC50 in experiment [1] was 1000 nM. Also, the IC50 in experiment [2] is 1000 nM. For the same compound, at Adrenergic β2, the EC50 is 3.16 nM and the “β2 Int Act” value came out at 0.6.
